Entries after “also recorded” stand apart in the source; their conditions may differ. Peptide text beside a SMILES is read from it. * marks the point of attachment. Cbz = O=C(OCc1ccccc1)*; CH2F = FC*

Assay [1] has as its system Jurkat control and DEK-knockdown cells. Description: DEK knock-down and DNA damage assay (Annexin-V). The note with it: increasing doses, 24 hours. In kind it is cell-based. The protocol: Jurkat and HeLa S3 cells were transduced with either an empty lentiviral vector, or a vector containing two DEK-specific shRNAs. Control and DEK-knockdown Jurkat cells were exposed to increasing doses of UVC radiation. Twenty-four hours after irradiation, the percentage of apoptotic cells was determined by staining with Annexin-V and analysis by flow cytometry. HeLa S3 control and DEK-knockdown cells were similarly treated with increasing doses of UVC radiation. Cells were fixed, permeabilized, and stained with R-phycoerythrin labeled antibodies against the active form of caspase-3 twenty-four hours after irradiation. The percentage of cells expressing the active form of caspase-3 was determined by flow cytometry. Jurkat control and DEK-knockdown transduced cells were treated with either etoposide or cisplatin at increasing doses and 24 hours later the percentage of apoptotic cells was determined by staining with Annexin-V.

In assay [2] the test system is monocyte-derived macrophages (MDM). Briefly: DEK secretion by serum-differentiated MDM, Western blot of supernatants. It counts as cell-based, human. The following applies: for amount of DEK found in culture supernatants: treatment of MDM with Golgi inhibitors. On the procedure:
MDM were prepared as described (See, e.g., Lane et al., J Immunol 163, 3653-61. (1999)). Briefly, heparinized venous blood was collected from healthy volunteers, and peripheral blood mononuclear cells (PBMC) were separated by Ficoll-Hypaque (Amersham Pharmacia Biotech AB, Uppsala, Sweden) density gradient centrifugation. MDM were purified by adherence to plastic for 2 h at 37° C. at a concentration of 5×10^5/ml. Adherent cells were consistently >90% monocytes (See, e.g., Lane et al., J Immunol 163, 3653-61. (1999)). […]
MDMs were maintained for 12 h in serum-free conditioned media with added dexamethasone, (0.5 μM or 1 μM) (Sigma St. Louis, Mo.), cyclosporin A (CsA, 1 μg/ml) (Sigma St. Louis, Mo.), carbonyl cyanide chlorophenyl hydrazone (CCCP) (10 μM) (Sigma St. Louis, Mo.), IL-8 (10 ng/ml) (R&D Systems, Minneapolis, Minn.) or TBB (See, e.g., Sarno et al., Pharmacol Ther 93, 159-68 (2002)) for 3 hours. Following 3 washes with PBS, serum-free media was added for 3 to 12 h before harvest. The viability of the cells incubated in serum-free medium with or without added drugs was >95% at 48 h as measured by MTT-based colorimetric assay (Boehringer Mannheim, Indianapolis, Ind.) and by LDH release as previously described (See, e.g., Punturieri et al., J Exp Med 192, 789-99. (2000)). Supernatants were collected and centrifuged for 20 min at 200×g to remove cell debris, then concentrated by a centrifugal filter device (Millipore) in the presence of a protease inhibitor cocktail (Boehringer Mannheim, Indianapolis, Ind.). Equal amounts of protein (20 μg) were loaded under reducing conditions and proteins were separated by 10% SDS-PAGE. The proteins were subsequently transferred to nitrocellulose and probed with mouse monoclonal anti-DEK or rabbit or goat polyclonal anti-DEK antibodies. The bound primary antibody was then detected with horseradish peroxidase-conjugated goat anti-mouse or anti-rabbit secondary antibody using the Super Signal West Pico system (Pierce Chemical Co, Rockford, Ill.).
On the technique in general: Immunoblotting shows a protein as a band on a membrane.

In another assay the test system is Jurkat cells. Briefly: FAS-L induced apoptosis assay, DEK release into cytoplasm. It counts as cell-based. The following applies: Fas Ligand-mediated apoptosis, 3% FAS-L, 180 min. On the procedure:
Jurkat cells were washed with serum-free RPMI medium and incubated with 3% FAS-L without or with the broad-spectrum caspase inhibitor zVAD for 180 min. Cells were fractionated and the cytoplasm was separated by SDS-PAGE followed by immunoblotting with DEK specific antibodies (mouse monoclonal, BD Bioscience). As a loading control the same blot was reprobed with specific antibodies to beta-actin.

Assay [3] concerns purified neutrophils (PMN). Briefly: In vitro migration assay with purified neutrophils. It counts as cell-based, human. The note with it: SB225002 3 μM, 1 h. On the procedure:
Purified neutrophils (PMN) were treated with IL-8 (50 nM), the CXCR2 small molecule inhibitor SB225002 (3 μM), DEK (79 nM), IL-8 plus SB225002, or DEK plus SB225002 for 5 min at room temperature before and then during the migration assay. After 1 h, the number of fluorescently labeled migrating cells in the lower chamber was determined at 485 nM/535 nm wavelengths by Tecan GENios (Phenix, Austria). […] The results are expressed as the average fold increase in the number of cells migrating toward DEK compared to control wells containing medium only. White blood cells were isolated from venous blood from healthy donors as described above, and were depleted of monocytes by adherence to plastic for 2 h as described in the Cell Preparation section. […] The cells were washed and resuspended at 1×10^6 cells/ml in serum-free RPMI medium, and 1×10^5 labeled cells in 100 μl were added to the upper chamber of a 24-well Transwell chemotaxis insert with pore size of 3 μm or 5 μm (Corning, N.Y.). The lower chambers contained serum-free RPMI medium alone, recombinant DEK made in baculovirus, or a deletion mutant of the β form of human GLI-2 (See, e.g., Smith et al., J Virol 75, 2301-13 (2001)) produced in baculovirus as the control protein. After 30 min to 1 h, the number of fluorescently labeled migrating cells in the lower chamber was determined at […] wavelength using a Tecan GENios plate-reader (Phenix, Austria). The results were expressed as the average fold increase of the number of cells migrating toward lower chambers containing DEK divided by the number of cells migrating toward the control wells (medium alone). Forty ml of venous blood was collected from healthy volunteers into a 50 ml sterile syringe containing a mixture of 7 ml 0.25 M Citrate (0.17 M NA Citrate and 0.083 M Citric Acid) and 6% Dextran in PBS buffer. The blood was incubated for 30 min at room temperature and the upper phase was collected and further separated by Ficoll as described above. The neutrophil fraction was collected and washed with HBSS buffer and then pelleted again. […]

Another assay deals with T1, CXCR2 (Homo sapiens, UniProt P25025).
T1 sequence (P25025 1-360): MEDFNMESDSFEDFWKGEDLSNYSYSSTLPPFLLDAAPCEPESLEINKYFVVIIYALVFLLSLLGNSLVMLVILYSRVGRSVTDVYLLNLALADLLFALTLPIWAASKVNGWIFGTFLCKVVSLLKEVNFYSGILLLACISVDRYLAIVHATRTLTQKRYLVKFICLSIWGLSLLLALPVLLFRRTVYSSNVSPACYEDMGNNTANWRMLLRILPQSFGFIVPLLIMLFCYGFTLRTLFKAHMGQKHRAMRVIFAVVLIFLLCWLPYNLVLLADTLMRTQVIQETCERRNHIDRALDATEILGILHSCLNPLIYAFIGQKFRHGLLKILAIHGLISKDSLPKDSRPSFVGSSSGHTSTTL
The note with it: at low concentrations; cited from earlier work.

[4] abbreviates: MDM in 10% human serum, TNF-α 5-100 ng/ml, IFN-γ 10-100 ng/ml, MCP-1 10-100 ng/ml, LPS 500-1000 ng/ml alone and with IFN-γ.

Regarding `COc1cc([C@@H]2c3cc4c(cc3[C@@H](O[C@@H]3O[C@@H]5CO[C@@H](C)O[C@H]5[C@H](O)[C@H]3O)[C@H]3COC(=O)[C@H]23)OCO4)cc(OC)c1O` [etoposide], the “sensitivity of DEK knock-down cells vs control cells (apoptosis)” value in assay [1] is “consistently more sensitive”.

As for TNF-α, in assay [2] (setting [4]), the “stimulation of DEK secretion” value was “None of the inflammatory mediators listed above reproducibly stimulated DEK secretion”.

As for `N.N.[Cl][Pt][Cl]` [cisplatinum], the “sensitivity of DEK knock-down cells vs control cells (apoptosis)” value in assay [1] is “consistently more sensitive”.

For tunicamycin, the DEK secretion entry in assay [2] (treatment of MDM with tunicamycin (inhibits N-glycosylation)) is “not inhibited”.

On to `CC(NC(=O)C(NC(=O)OCc1ccccc1)C(C)C)C(=O)NC(CC(=O)O)C(=O)CF` (stereo not drawn) [ZVAD] (Cbz-Val-Ala-Asp-CH2F; configuration not given here), for which the “release of DEK into the cytoplasm” value with Jurkat cells is “blocks”.

On to `CC[C@@]1([C@@H]2O[C@@H]([C@H]3O[C@@](O)(CO)[C@H](C)C[C@@H]3C)C[C@@H]2C)CC[C@H]([C@]2(C)CC[C@]3(C[C@H](O)[C@@H](C)[C@@H]([C@@H](C)[C@@H](OC)[C@H](C)C(=O)O)O3)O2)O1` [monensin], for which the “amount of DEK found in culture supernatants” value in assay [2] is “does not alter”.

As for “IL-8: recombinant IL-8, chemokine, neutrophil chemoattractant”, the “stimulation of DEK secretion” value in assay [2] (IL-8 10 ng/ml, 12 h, day 12 MDM grown in 10% human serum) is given as “induces the secretion of DEK; also recorded: effective in stimulating vigorous secretion of DEK”.

In the case of “MCP-1: monocyte chemoattractant protein-1”, the “stimulation of DEK secretion” value in assay [2] (setting [4]) is “None of the inflammatory mediators listed above reproducibly stimulated DEK secretion”.

`O=C(Nc1ccc([N+](=O)[O-])cc1O)Nc1ccccc1Br` [SB225002]: the “neutrophil migration toward DEK” value in assay [3] (DEK 79 nM) is on record as “significantly blocked; also recorded: virtually complete inhibition”. In addition, the “neutrophil migration toward IL-8” value in assay [3] (IL-8 50 nM) is given as “significantly blocked; also recorded: virtually complete inhibition”. Further, on CXCR2, the receptor selectivity entry is reported as “selective for CXCR2”.

As for lipopolysaccharide [LPS], in assay [2] (setting [4]), the “stimulation of DEK secretion” value is reported as “None of the inflammatory mediators listed above reproducibly stimulated DEK secretion”.

As to `Brc1c(Br)c(Br)c2[nH]nnc2c1Br` [TBB, 4,5,6,7-tetrabromobenzotriazole], in assay [2] (12-day MDM treated with TBB), the “inhibition of DEK secretion” value was “complete inhibition”. The “amount of extracellular DEK from TBB-treated cells vs untreated cells” value in assay [2] (12 hours after removal of TBB) is listed as “significantly lower”. Besides, the “DEK in supernatants collected during the first 3 hours of incubation in serum free media” value in assay [2] (three-hour treatment of 8-day MDM with TBB (50 μM)) is “absent”.

For the molecule `C[C@H]1CCC/C=C/[C@@H]2C[C@H](O)C[C@H]2[C@H](O)/C=C/C(=O)O1` [Brefeldin A], in assay [2], the “amount of DEK found in culture supernatants” value is listed as “does not alter”.

B1: IFN-γ: inflammatory mediator (protein, UniProt P01579 24-161, looked up)
Interferon gamma: QDPYVKEAENLKKYFNAGHSDVADNGTLFLGILKNWKEESDRKIMQSQIVSFYFKLFKNFKDDQSIQKSVETIKEDMNVKFFNSNKKKRDDFEKLTNYSVTDLNVQRKAIHELIQVMAELSPAAKTGKRKRSQMLFRG
Take B1: the “stimulation of DEK secretion” value in assay [2] (setting [4]) is on record as “None of the inflammatory mediators listed above reproducibly stimulated DEK secretion”.

Values taken from US8652467B2, “Dek protein compositions and methods of using the same” (The Regents of the University of Michigan, priority 2005, dated 2014).
